Reference: US20090252751A1, “Immune adjuvant comprising ubiquinone” (priority 2007, published 2009)

Columns and labels:
Type in all cases: in vivo
[1] = test system: mice; assay: Production amount of antibody in mice by ELISA with CoQ2, CoQ4, CoQ6 or CoQ10 as immunoadjuvant (Test Example 3); conditions: used as immunoadjuvant together with antigenic substance; serum sample on the 25th day; ELISA absorbance (FIG. 3)
Description: The following test was carried out according to the procedure of Text example 1 by using ELISA to confirm the amount of antibody in mice produced upon the administration of coenzyme Q2 (n=2; CoQ2), coenzyme Q4 (n=4; CoQ4), coenzyme Q6 (n=6; CoQ6) or coenzyme Q10 (n=10; CoQ10) together with an antigenic substance. The case where only an antigenic substance had been administered was selected as a reference example in the test.
As a result, the average of the absorbance for the serum sample on the 25th day from the start of the test in each group was as shown in FIG. 3.

[2] = test system: Balb/c mice; assay: Production amount of antibody in mouse serum by ELISA after dermal administration of antigenic substance with immunoadjuvant (Test Example 1)
[3] = test system: Balb/c mice; assay: Measurement of IgG1/IgG2 ratio in blood sample as index of Th2/Th1 balance (Test Example 2)
Description: The blood sample collected on the 25th day from the start of the test was provided, and the IgG1/IgG2 ratio was measured as an index of Th2/Th1 balance.
Further, a blood sample obtained by inoculating only the antigenic substance by intraperitoneal administration instead of the dermal administration at the same time as in the administration schedule in Test Example 1 was used as a control blood sample for comparison.
The IgG1/IgG2 ratio was measured with a Mouse Monoclonal Antibody Isotyping Reagents kit (SIGMA).
Specifically, a mouse serum was diluted with PBS by a factor of 1000 to give a solution. The solution (100 μL) was added to wells in a plate and was incubated at 37° C. for one hr. Next, each well was washed three times with PBS, and 100 μL of isotyping specific reagents (reagents containing IgA, IgG1, IgG2a, and IgG2b), which had been diluted by a factor of 1000, were added to the wells followed by incubation at room temperature for 30 min. Each well was washed three times with PBST. A peroxidase labelled […] (manufactured by SIGMA) (100 μL), which had been diluted with PBST by a factor of 5000, was added to the wells, and the wells were allowed to stand at room temperature for one hr. The wells were then washed three times with PBST. […] For each well, the absorbance was measured with Multiscan Ascent (manufactured by Thermo Labsystems, wave length 405 nm).

## COC1=C(OC)C(=O)C(C/C=C(\C)CCC=C(C)C)=C(C)C1=O [coenzyme Q2]
[1]
  production amount of the antibody compared with the case where only the antigenic substance was administered: larger

## COC1=C(OC)C(=O)C(C/C=C(\C)CC/C=C(\C)CC/C=C(\C)CCC=C(C)C)=C(C)C1=O [coenzyme Q4]
[1]
  production amount of the antibody compared with the case where only the antigenic substance was administered: larger

## COC1=C(OC)C(=O)C(C/C=C(\C)CC/C=C(\C)CC/C=C(\C)CC/C=C(\C)CC/C=C(\C)CCC=C(C)C)=C(C)C1=O [coenzyme Q6]
[1]
  production amount of the antibody compared with the case where only the antigenic substance was administered: larger

## COC1=C(OC)C(=O)C(C/C=C(\C)CC/C=C(\C)CC/C=C(\C)CC/C=C(\C)CC/C=C(\C)CC/C=C(\C)CC/C=C(\C)CC/C=C(\C)CC/C=C(\C)CCC=C(C)C)=C(C)C1=O [coenzyme Q10]
[1]
  production amount of the antibody compared with the case where only the antigenic substance was administered: larger
[2]; dermal administration (tape preparation), serum sample on the 25th day from the start of the test, serum diluted 1000-fold, 405 nm, n=4
  average±standard error of the absorbance (amount of produced antibody, ELISA): 0.670±0.033
[3]; dermal administration of the antigenic substance together with adjuvant, blood sample on the 25th day
  IgG1/IgG2 ratio (given as average of the absorbance): 2.28

## cholera toxin [reference compound]
[2]; mouse, in vivo
  average±standard error of the absorbance (amount of produced antibody, ELISA): 0.551±0.202
[3]; mouse, in vivo
  IgG1/IgG2 ratio (given as average of the absorbance): 1.46
